From patent US11312706B2, “Cyclohexyl acid pyrazole azines as LPA antagonists” (BRISTOL-MYERS SQUIBB COMPANY, priority 2017, dated 2022)

Test system: mouse epithelial renal cell line, MCT
Experiment: not given
Settings: MCT cells, co-treatment with LPA; cited from earlier work

SMILES | induction of CTGF expression by LPA
Cc1noc(-c2ccc(CSCCC(=O)O)cc2)c1NC(=O)OC(C)c1ccccc1Cl (stereo not shown) [Ki16425] | almost completely suppressed

Test system: UUO mice
Experiment: not given
Settings: cited from earlier work

SMILES | development of renal fibrosis, profile
Cc1noc(-c2ccc(CSCCC(=O)O)cc2)c1NC(=O)OC(C)c1ccccc1Cl (stereo not shown) [Ki16425] | closely resembled the profile of LPA1 (−/−) mice

Test system: highly peritoneal metastatic pancreatic cancer cell line
Experiment: not given
Settings: cited from earlier work

SMILES | LPA-induced and ascites-induced invasion activity
Cc1noc(-c2ccc(CSCCC(=O)O)cc2)c1NC(=O)OC(C)c1ccccc1Cl (stereo not shown) [Ki16425] | blocked

Test system: pancreatic cancer cell lines
Experiment: not given
Settings: ascites from pancreatic cancer patients; cited from earlier work

SMILES | in vitro migration in response to LPA and peritoneal fluid (ascites)
Cc1noc(-c2ccc(CSCCC(=O)O)cc2)c1NC(=O)OC(C)c1ccccc1Cl (stereo not shown) [Ki16425] | effectively blocked

Test system: IPF patients
Experiment: not given
Settings: 26 weeks; cited from earlier work

SMILES | rate of FVC (forced vital capacity) decline
Cc1noc(-c2ccc(-c3ccc(C4(C(=O)O)CC4)cc3)cc2)c1NC(=O)O[C@H](C)c1ccccc1 [BMS-986020] | significantly reduce the rate of FVC (forced vital capacity) decline

Test system: human foetal lung fibroblasts
Experiment: not given
Settings: bronchoalveolar lavage samples of IPF subjects; cited from earlier work

SMILES | fibroblast chemotactic activity
Cc1noc(-c2ccc(CSCCC(=O)O)cc2)c1NC(=O)OC(C)c1ccccc1Cl (stereo not shown) [Ki16425] | inhibited

Test system: nerve-injured mice
Experiment: not given
Settings: pretreatment; cited from earlier work

SMILES | allodynia and hyperalgesia
C[C@@H](N)[C@H]1CC[C@H](C(=O)Nc2ccncc2)CC1 [Example Y-27632] | completely abolished

Biological target: T1, human LPA1 (Homo sapiens, UniProt Q92633)
T1 construct: expressed in transfected cells; host or cells: Chinese hamster ovary (CHO) cells
Experiment: LPA1 functional antagonist assay (LPA-induced calcium flux)
Assay type: cell-based
Settings: CHO cells overexpressing human LPA1, 10 nM LPA, read-out: hLPA1 IC50
Method: The effectiveness of compounds of the present invention as LPA1 inhibitors can be determined in an LPA1 functional antagonist assay as follows:
Chinese hamster ovary cells overexpressing human LPA1 were plated overnight (15,000 cells/well) in poly-D-lysine coated 384-well microplates (Greiner bio-one, Cat #781946) in DMEM/F12 medium (Gibco, Cat #11039). Following overnight culture, cells were loaded with calcium indicator dye (AAT Bioquest Inc, Cat #34601) for 30 minutes at 37° C. The cells were then equilibrated to room temperature for 30 minutes before the assay. Test compounds solubilized in DMSO were transferred to 384 well non-binding surface plates (Corning, Cat #3575) using the Labcyte Echo acoustic dispense and diluted with assay buffer [1×HBSS with calcium/magnesium (Gibco Cat #14025-092), 20 mM HEPES (Gibco Cat #15630-080) and 0.1% fatty acid free BSA (Sigma Cat #A9205)] to a final concentration of 0.5% DMSO. Diluted compounds were added to the cells by FDSS6000 (Hamamatsu) at final concentrations ranging from 0.08 nM to 5 μM. and were then incubated for 20 min at room temperature at which time LPA (Avanti Polar Lipids Cat #857130C) was added at final concentrations of 10 nM to stimulate the cells. The compound IC50 value was defined as the concentration of test compound which inhibited 50% of the calcium flux induced by LPA alone. IC50 values were determined by fitting data to a 4-parameter logistic equation (GraphPad Prism, San Diego Calif.).

T1 sequence (Q92633 whole entry): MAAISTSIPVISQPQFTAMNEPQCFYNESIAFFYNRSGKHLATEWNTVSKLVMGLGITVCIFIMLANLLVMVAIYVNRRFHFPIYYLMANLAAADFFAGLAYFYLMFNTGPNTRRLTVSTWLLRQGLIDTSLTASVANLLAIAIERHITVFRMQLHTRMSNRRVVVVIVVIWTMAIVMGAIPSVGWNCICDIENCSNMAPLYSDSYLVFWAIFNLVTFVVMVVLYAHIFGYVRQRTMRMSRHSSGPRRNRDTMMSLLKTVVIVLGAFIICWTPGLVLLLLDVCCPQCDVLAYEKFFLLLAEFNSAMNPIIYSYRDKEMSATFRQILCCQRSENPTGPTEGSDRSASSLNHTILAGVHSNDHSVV

SMILES | IC50 [nM]
COCCOc1ccnc(NCc2c(-c3ncc(O[C@H]4CCC[C@H](C(=O)O)C4)c(C)n3)cnn2C)n1 [Example 34, (1S,3S)-3-((2-(5-(((4-(2-methoxyethoxy)pyrimidin-2-yl)amino)methyl)-1-methyl-lH-pyrazol-4-yl)-4-methylpyrimidin-5-yl)oxy)cyclohexane-1-carboxylic acid] | 78
CCc1nc(-c2cnn(C)c2CNc2nccc(OCC(C)(F)F)n2)ncc1O[C@H]1CCC[C@H](C(=O)O)C1 [Example 26] | 15
Cn1ncc(-c2ccc(O[C@H]3CCC[C@H](C(=O)O)C3)cn2)c1COc1cccc(-c2ccccc2)c1 (relative stereo) [Example 30, Trans-3-((6-(5-(([1,1′-biphenyl]-3-yloxy)methyl)-1-methyl-1H-pyrazol-4-yl)pyridin-3-yl)oxy)cyclohexane-1-carboxylicacid] | 104
Cc1nc(-c2cnn(C)c2CNc2nccc(OCCCF)n2)ncc1O[C@H]1CCC[C@H](C(=O)O)C1 [Example 41, (1S,3S)-3-((2-(5-(((4-(3-fluoropropoxy)pyrimidin-2-yl)amino)methyl)-1-methyl-1H-pyrazol-4-yl)-4-methylpyrimidin-5-yl)oxy)cyclohexane-1-carboxylic acid] | 7.1
Cc1nc(-c2cnn(C)c2CNc2nccc(-c3ccccn3)n2)ncc1O[C@H]1CCC[C@H](C(=O)O)C1 [Example 17, (1S,3S)-3-((4-methyl-2-(1-methyl-5-(((4-(pyridin-2-yl)pyrimidin-2-yl)amino)methyl)-1H-pyrazol-4-yl)pyrimidin-5-yl)oxy)cyclohexane-1-carboxylic acid] | 79
Cn1ncc(-c2ccc(O[C@H]3CCC[C@H](C(=O)O)C3)cn2)c1CNc1nccc(-c2ccccc2)n1 (relative stereo) [Example 1, Trans-3-((6-(1-methyl-5-(((4-phenylpyrimidin-2-yl)amino)methyl)-1H-pyrazol-4-yl)pyridin-3-yl)oxy)cyclohexane-1-carboxylic acid] | 122
Cc1nc(-c2cnn(C)c2CNc2nccc(-c3ccccc3)n2)ccc1O[C@H]1CCC[C@H](C(=O)O)C1 [Example 4, (1S,3S)-3-((2-methyl-6-(1-methyl-5-(((4-phenylpyrimidin-2-yl)amino)methyl)-1H-pyrazol-4-yl)pyridin-3-yl)oxy)cyclohexanecarboxylic acid] | 54
Cc1nc(-c2cnn(C)c2CNc2nccc(OCC(C)F)n2)ncc1O[C@H]1CCC[C@H](C(=O)O)C1 (stereo partly drawn) [Example 33, (1S,3S)-3-((2-(5-(((4-(2-fluoropropoxy)pyrimidin-2-yl)amino)methyl)-1-methyl-1H-pyrazol-4-yl)-4-methylpyrimidin-5-yl)oxy)cyclohexane-1-carboxylic acid] | 21
Cc1nc(-c2cnn(C)c2CNc2nccc(OC3CC(F)(F)C3)n2)ncc1O[C@H]1CCC[C@H](C(=O)O)C1 [Example 31, (1S,3S)-3-((2-(5-(((4-(3,3-difluorocyclobutoxy)pyrimidin-2-yl)amino)methyl)-1-methyl-1H-pyrazol-4-yl)-4-methylpyrimidin-5-yl)oxy)cyclohexane-1-carboxylic acid] | 122
CCOc1ccnc(NCc2c(-c3ncc(O[C@H]4CCC[C@H](C(=O)O)C4)c(C)n3)cnn2C)n1 [Example 3, (1S,3S)-3-((2-(5-(((4-ethoxypyrimidin-2-yl)amino)methyl)-1-methyl-1H-pyrazol-4-yl)-4-methyl-pyrimidin-5-yl)oxy)cyclohexane-1-carboxylic acid] | 22
CCOc1ccnc(NCc2c(-c3ncc(O[C@H]4CCC[C@H](C(=O)O)C4)c(CC)n3)cnn2C)n1 [Example 21, (1S,3S)-3-((2-(5-(((4-ethoxypyrimidin-2-yl)amino)methyl)-1-methyl-1H-pyrazol-4-yl)-4-ethylpyrimidin-5-yl)oxy)cyclohexane-1-carboxylicacid] | 5
Cn1ncc(-c2ccc(O[C@H]3CCC[C@H](C(=O)O)C3)cn2)c1Nc1cccc(-c2cccc(F)c2)n1 [Example 42, (1S,3S)-3-{[6-(5-{[6-(3-fluorophenyl)pyridin-2-yl]amino}-1-methyl-1H-pyrazol-4-yl)pyridin-3-yl]oxy}cyclohexane-1-carboxylic acid] | 137
Cc1nc(-c2cnn(C)c2CNc2ccnc(OC3CC(F)(F)C3)n2)ncc1O[C@H]1CCC[C@H](C(=O)O)C1 [Example 32, (1S,3S)-3-((2-(5-(((2-(3,3-difluorocyclobutoxy)pyrimidin-4-yl)amino)methyl)-1-methyl-1H-pyrazol-4-yl)-4-methylpyrimidin-5-yl)oxy)cyclohexane-1-carboxylic acid] | 619
CCCc1ccnc(Nc2c(-c3ncc(O[C@H]4CCC[C@H](C(=O)O)C4)c(C)n3)cnn2C)n1 [Example 19, (1S,3S)-3-((4-methyl-2-(1-methyl-5-((4-propylpyrimidin-2-yl)amino)-1H-pyrazol-4-yl)pyrimidin-5-yl)oxy)cyclohexane-1-carboxylic acid] | 1410
Cc1nc(-c2cnn(C)c2Nc2nccc(OC(C)C)n2)ncc1O[C@H]1CCC[C@H](C(=O)O)C1 [Example 18, (S,3S)-3-((2-(5-((4-isopropoxypyrimidin-2-yl)amino)-1-methyl-1H-pyrazol-4-yl)-4-methyl-pyrimidin-5-yl)oxy)cyclohexane-1-carboxylic acid] | 1010
CCc1nc(-c2cnn(C)c2CNc2nccc(OCCOC)n2)ncc1O[C@H]1CCC[C@H](C(=O)O)C1 [Example 27, (1S,3S)-3-((4-ethyl-2-(5-(((4-(2-methoxyethoxy)pyrimidin-2-yl)amino)methyl)-1-methyl-1H-pyrazol-4-yl)pyrimidin-5-yl)oxy)cyclohexane-1-carboxylic acid] | 61
CCc1nc(-c2cnn(C)c2CNc2nccc(OC3CC3)n2)ncc1O[C@H]1CCC[C@H](C(=O)O)C1 [Example 22, (1S,3S)-3-((2-(5-(((4-cyclopropoxy-pyrimidin-2-yl)amino)methyl)-1-methyl-1H-pyrazol-4-yl)-4-ethylpyrimidin-5-yl)oxy)cyclohexane-1-carboxylic acid] | 7
Cc1nc(-c2cnn(C)c2CNc2nccc(OC(C)C)n2)ncc1O[C@H]1CCC[C@H](C(=O)O)C1 [Example 2, (1S,3S)-3-((2-(5-(((4-Isopropoxypyrimidin-2-yl)amino)methyl)-1-methyl-1H-pyrazol-4-yl)-4-methylpyrimidin-5-yl)oxy)cyclohexane-1-carboxylic acid] | 29
